In paper PMC8912030, “Secondary Metabolites with Anti-Inflammatory from the Roots of Cimicifuga taiwanensis” (Molecules, 2022):
Like-named read-outs stand apart in the source and are kept apart here.

Tests used:
[1] = test system: LPS-activated NO production in RAW 264.7 macrophages; experiment: Inhibition of LPS-induced NO production (Griess reagent assay, nitrite); assay type: cell-based, mouse; conditions: for IC50: Mus musculus, read-out: IC50 NO; for fold NO inhibitory activity compared with quercetin: ratio to quercetin IC50 34.58 μM; for NO inhibitory activity (in words): LPS-induced NO production in RAW 264.7
Method: The anti-inflammatory activities of the 5 isolates (2–6) in sufficient amounts were evaluated by examining their inhibitory effects on lipopolysaccharide (LPS)-induced inducible nitric oxide synthase (iNOS)-dependent NO 6 production in the murine macrophage cell line RAW 264.7 (Table 4). From the results of our anti-inflammatory tests, the following conclusions could be drawn.
(§1) The mouse macrophage cell line (RAW 264.7) was obtained from the Bioresource Collection and Research Center (BCRC 60001) and cultured at 37 °C in Dulbecco’s Modified Eagle’s Medium (DMEM) supplemented with 10% fetal bovine serum (Gibco), 4.5 g/L glucose, 4 mM glutamine, penicillin (100 units/mL), and streptomycin (100 μg/mL) in a humidified atmosphere in a 5% CO2 incubator. The cells were treated with 10, 25, and 50 μM of natural products in the presence of 1 μg/mL lipopolysaccharide (LPS, Sigma-Aldrich) for 20 h. The concentration of NO in the culture supernatants was determined to be nitrite, a major stable product of NO, by a Griess reagent assay, and cell viabilities were determined using the MTT assay as described previously.

[2] = Cell viability (MTT assay); assay type: cell-based, mouse; conditions: mouse
Method: (§2) The cytotoxic effects were tested using an MTT experiment.
as §1

RAW 264.7 macrophages = experiment: Cell viability (MTT assay); assay type: cell-based, mouse
Method: as §2, §1

[3] = RAW264.7, RAW 264.7, 1 μg/mL LPS, 20 h, mean ± SEM (n = 4) of 3 independent experiments

IC50 [1, 3]	melting point	SMILES	fold NO inhibitory activity compared with quercetin [1]	viability at 20 h, 50 µM [2]	Cell Viability (% Control) (RAW 264.7 macrophages; 50 µM)	NO inhibitory activity (in words) [1]	NO inhibitory activity (in words) ([1]; listed as Cimicitaiwanin E)	IC50 ([1]; RAW264.7, 20 h)	Cell Viability (% Control) (RAW 264.7 macrophages; RAW 264.7, MTT, mean ± SEM, concentration not given in table (text: 50 μM))
8.37 ± 3.25 µM	–	CC(=O)OC(C)(C)C1OC23OC1CC(C)C2C1(C)C(O)CC2=C(CCC4C5(CCC(O5)C4(C)C)C2)C1(C)C3O (stereo not drawn) [Compound 2, 25-O-acetyl-12β-hydroxyacerinol]	about four	< 80%	69.14 ± 2.87 % Control	–	–	–	–
6.54 ± 0.87 µM	103 to 105 °C	CC(=O)OC(C)(C)C1OC23OC1CC(C)C2C1(C)CC(=O)C2=C(C(O)CC4C5(CCC(O5)C4(C)C)C2)C1(C)C3O (stereo not drawn) [Compound 3, 25-O-acetyl-7β-hydroxy-11-oxoacerinol]	five	95%	95.53 ± 3.39 % Control	showed inhibitory activities	–	–	–
10.1 ± 0.47 µM	–	CC(=O)OC(C)(C)C1OC23OC1CC(C)C2C1(C)CCC2=C(CCC4C(=CCC(OC5OCC(O)C(O)C5O)C4(C)C)C2)C1(C)C3O (stereo not drawn) [Compound 4, cimicitaiwanin D]	three	91%	91.12 ± 4.22 % Control	showed inhibitory activities	–	–	–
–	–	CC1CC2OC3(OC2C(C)(C)O)C1C1(C)CCC24CC25C=CC(=O)C(C)(C)C5CC=C4C1(C)C3O (stereo not drawn) [Compound 5, cimicitaiwanin E]	–	89%	88.54 ± 1.50 % Control	moderate	showed inhibitory activities	24.6 ± 4.97 µM	–
15.4 ± 0.85 µM	–	CC(C=CC1C(C)CC(O)CC1(C)C)=CC(=O)O [Compound 6, rel-(2E,4E)-5-((3S,5R,6R,)-4-hydroxy-2,2,6-trimethylcyclohexyl)-3-methylpenta-2,4-dienoic acid]	two	87%	86.84 ± 2.95 % Control	showed inhibitory activities	–	–	–

SMILES	IC50 [1, 3]	melting point	fold NO inhibitory activity compared with quercetin [1]	viability at 20 h, 50 µM [2]	Cell Viability (% Control) (RAW 264.7 macrophages; 50 µM)	NO inhibitory activity (in words) [1]	NO inhibitory activity (in words) ([1]; listed as Cimicitaiwanin E)	IC50 ([1]; RAW264.7, 20 h)	Cell Viability (% Control) (RAW 264.7 macrophages; RAW 264.7, MTT, mean ± SEM, concentration not given in table (text: 50 μM))
O=c1c(O)c(-c2ccc(O)c(O)c2)oc2cc(O)cc(O)c12 [Quercetin, quercetin, reference compound]	34.6 ± 2.34 µM	–	–	–	–	–	–	–	95.56 ± 1.91 % Control
